Columns and labels:
EPHB2 = biological target: T1, EPHB2 (Homo sapiens, UniProt P29323); assay: Kinase panel profiling at 1 µmol/L (mobility shift assay, Carna); assay type: biochemical; settings: 1 µmol/L of BTK inhibitor
T1 construct: purchased Carna Biosciences
T1 sequence (P29323 19-1055): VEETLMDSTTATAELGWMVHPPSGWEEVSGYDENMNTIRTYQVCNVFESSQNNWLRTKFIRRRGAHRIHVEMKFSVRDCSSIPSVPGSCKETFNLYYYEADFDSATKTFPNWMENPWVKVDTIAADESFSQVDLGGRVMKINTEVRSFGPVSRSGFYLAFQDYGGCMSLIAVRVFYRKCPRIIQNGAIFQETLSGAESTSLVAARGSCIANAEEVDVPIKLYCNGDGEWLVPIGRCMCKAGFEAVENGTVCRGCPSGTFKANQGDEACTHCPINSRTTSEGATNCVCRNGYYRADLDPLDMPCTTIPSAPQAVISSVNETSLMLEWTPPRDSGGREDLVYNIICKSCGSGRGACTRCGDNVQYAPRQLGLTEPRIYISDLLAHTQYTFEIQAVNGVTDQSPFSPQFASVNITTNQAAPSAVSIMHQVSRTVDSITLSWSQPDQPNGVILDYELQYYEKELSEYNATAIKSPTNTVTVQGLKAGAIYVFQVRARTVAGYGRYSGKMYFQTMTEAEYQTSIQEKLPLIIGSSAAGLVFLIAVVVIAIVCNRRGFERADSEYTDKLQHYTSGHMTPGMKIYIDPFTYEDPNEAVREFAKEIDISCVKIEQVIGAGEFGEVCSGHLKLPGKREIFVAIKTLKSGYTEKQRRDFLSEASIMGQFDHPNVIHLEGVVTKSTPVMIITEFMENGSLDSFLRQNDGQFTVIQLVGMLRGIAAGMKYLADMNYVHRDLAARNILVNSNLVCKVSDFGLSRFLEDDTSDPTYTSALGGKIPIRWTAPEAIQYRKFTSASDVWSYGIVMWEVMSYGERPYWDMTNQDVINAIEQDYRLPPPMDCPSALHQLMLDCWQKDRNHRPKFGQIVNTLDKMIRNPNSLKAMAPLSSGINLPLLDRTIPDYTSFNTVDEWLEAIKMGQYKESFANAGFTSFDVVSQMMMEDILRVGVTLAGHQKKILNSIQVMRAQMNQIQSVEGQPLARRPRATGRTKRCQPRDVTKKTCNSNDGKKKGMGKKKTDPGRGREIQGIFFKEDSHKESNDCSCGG

LYNa = biological target: T2, LYNa (Homo sapiens, UniProt P07948); assay: as above; assay type: biochemical; settings: 1 µmol/L of BTK inhibitor
T2 construct: purchased Carna Biosciences
T2 sequence (P07948 whole entry): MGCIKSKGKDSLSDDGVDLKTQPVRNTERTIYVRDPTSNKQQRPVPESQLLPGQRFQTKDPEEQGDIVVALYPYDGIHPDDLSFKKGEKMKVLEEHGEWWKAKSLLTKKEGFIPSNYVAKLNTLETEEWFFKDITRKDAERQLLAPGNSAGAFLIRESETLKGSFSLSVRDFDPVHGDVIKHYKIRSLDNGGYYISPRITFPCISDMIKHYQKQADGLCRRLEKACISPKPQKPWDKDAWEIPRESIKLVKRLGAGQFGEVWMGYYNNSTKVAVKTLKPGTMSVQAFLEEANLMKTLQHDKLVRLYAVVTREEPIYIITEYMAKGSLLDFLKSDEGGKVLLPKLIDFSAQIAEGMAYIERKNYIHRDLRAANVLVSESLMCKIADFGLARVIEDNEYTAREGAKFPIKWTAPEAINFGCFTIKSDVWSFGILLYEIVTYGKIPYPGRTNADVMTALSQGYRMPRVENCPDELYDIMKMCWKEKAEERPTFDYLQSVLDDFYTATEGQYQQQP

TYK2 = biological target: T3, TYK2 (Homo sapiens, UniProt P29597); assay: as above; assay type: biochemical; settings: 1 µmol/L of BTK inhibitor
T3 construct: purchased Carna Biosciences
T3 sequence (P29597 whole entry): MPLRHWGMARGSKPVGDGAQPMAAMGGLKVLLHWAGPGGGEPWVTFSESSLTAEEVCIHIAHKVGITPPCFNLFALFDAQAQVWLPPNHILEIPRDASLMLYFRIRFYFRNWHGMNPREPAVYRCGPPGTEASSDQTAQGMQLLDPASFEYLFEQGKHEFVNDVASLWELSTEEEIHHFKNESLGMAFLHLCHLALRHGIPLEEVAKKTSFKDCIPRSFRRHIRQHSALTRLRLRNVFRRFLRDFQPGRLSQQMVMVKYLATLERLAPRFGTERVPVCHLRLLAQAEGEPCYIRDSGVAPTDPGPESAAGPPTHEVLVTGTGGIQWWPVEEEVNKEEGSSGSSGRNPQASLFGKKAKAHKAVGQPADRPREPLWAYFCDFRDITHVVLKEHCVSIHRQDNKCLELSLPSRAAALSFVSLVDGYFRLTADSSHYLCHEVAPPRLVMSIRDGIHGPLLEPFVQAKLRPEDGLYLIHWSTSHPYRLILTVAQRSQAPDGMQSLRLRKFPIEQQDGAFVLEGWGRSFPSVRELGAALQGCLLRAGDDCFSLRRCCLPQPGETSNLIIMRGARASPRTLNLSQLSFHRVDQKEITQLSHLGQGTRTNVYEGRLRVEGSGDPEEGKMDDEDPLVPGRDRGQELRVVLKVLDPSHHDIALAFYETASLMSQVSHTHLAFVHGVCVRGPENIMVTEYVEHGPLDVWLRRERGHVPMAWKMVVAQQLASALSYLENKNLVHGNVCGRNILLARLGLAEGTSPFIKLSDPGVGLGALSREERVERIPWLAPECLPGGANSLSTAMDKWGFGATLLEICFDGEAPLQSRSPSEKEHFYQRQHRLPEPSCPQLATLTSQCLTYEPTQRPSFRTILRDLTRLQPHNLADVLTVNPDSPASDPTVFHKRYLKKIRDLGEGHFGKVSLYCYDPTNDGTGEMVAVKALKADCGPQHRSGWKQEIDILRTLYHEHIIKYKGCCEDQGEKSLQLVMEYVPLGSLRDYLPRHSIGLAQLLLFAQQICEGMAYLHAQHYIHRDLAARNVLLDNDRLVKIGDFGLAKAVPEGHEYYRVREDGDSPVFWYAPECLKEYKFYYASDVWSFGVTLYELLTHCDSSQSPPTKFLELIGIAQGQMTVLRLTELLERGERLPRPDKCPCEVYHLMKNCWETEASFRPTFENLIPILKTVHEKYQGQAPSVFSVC

AKT3 = biological target: T4, AKT3 (Homo sapiens, UniProt Q9Y243); assay: as above; assay type: biochemical; settings: 1 µmol/L of BTK inhibitor
T4 construct: purchased Carna Biosciences
T4 sequence (Q9Y243 whole entry): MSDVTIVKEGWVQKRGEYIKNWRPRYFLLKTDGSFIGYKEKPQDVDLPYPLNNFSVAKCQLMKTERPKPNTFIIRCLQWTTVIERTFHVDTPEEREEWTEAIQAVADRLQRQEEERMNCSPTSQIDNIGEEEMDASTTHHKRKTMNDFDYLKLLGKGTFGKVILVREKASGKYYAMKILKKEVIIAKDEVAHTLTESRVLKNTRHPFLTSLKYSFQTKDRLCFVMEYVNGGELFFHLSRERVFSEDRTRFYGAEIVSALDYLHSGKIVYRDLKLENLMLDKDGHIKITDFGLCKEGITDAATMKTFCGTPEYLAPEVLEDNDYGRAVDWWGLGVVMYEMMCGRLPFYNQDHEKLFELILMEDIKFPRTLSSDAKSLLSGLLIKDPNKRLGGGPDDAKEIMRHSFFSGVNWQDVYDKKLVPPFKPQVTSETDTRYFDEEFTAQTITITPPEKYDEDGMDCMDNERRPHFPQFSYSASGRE

CaMK2α = biological target: T5, CaMK2α (Homo sapiens, UniProt Q9UQM7); assay: as above; assay type: biochemical; settings: 1 µmol/L of BTK inhibitor
T5 construct: purchased Carna Biosciences
T5 sequence (Q9UQM7 whole entry): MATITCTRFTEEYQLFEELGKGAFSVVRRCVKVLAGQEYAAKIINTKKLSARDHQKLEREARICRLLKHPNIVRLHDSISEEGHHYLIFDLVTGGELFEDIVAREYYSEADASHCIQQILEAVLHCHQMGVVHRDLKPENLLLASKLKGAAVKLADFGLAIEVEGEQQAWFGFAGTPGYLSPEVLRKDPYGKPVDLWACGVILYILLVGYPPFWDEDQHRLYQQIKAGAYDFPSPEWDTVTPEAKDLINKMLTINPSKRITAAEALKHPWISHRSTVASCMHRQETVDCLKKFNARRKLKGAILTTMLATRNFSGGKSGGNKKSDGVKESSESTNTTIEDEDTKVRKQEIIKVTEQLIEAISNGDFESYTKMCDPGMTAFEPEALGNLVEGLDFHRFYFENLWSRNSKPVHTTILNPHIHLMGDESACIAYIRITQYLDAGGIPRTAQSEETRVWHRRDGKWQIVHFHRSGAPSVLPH

IRAK4 = biological target: T6, IRAK4 (Homo sapiens, UniProt Q9NWZ3); assay: as above; assay type: biochemical; settings: 1 µmol/L of BTK inhibitor
T6 construct: purchased Carna Biosciences
T6 sequence (Q9NWZ3 1-460): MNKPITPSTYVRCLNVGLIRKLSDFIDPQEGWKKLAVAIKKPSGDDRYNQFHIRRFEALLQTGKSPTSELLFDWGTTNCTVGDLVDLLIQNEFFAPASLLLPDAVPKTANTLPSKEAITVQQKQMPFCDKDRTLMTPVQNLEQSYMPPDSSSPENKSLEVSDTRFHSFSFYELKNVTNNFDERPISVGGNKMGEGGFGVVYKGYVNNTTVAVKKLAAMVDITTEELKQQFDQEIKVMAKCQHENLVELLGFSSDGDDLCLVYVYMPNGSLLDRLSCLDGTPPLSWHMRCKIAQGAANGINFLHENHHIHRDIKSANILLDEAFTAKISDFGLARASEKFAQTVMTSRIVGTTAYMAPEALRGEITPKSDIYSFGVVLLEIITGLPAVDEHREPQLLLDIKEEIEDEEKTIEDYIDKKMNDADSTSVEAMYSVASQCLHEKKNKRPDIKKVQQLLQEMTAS

PKCζ = biological target: T7, PKCζ (Homo sapiens, UniProt Q05513); assay: as above; assay type: biochemical; settings: 1 µmol/L of BTK inhibitor
T7 construct: purchased Carna Biosciences
T7 sequence (Q05513 1-592): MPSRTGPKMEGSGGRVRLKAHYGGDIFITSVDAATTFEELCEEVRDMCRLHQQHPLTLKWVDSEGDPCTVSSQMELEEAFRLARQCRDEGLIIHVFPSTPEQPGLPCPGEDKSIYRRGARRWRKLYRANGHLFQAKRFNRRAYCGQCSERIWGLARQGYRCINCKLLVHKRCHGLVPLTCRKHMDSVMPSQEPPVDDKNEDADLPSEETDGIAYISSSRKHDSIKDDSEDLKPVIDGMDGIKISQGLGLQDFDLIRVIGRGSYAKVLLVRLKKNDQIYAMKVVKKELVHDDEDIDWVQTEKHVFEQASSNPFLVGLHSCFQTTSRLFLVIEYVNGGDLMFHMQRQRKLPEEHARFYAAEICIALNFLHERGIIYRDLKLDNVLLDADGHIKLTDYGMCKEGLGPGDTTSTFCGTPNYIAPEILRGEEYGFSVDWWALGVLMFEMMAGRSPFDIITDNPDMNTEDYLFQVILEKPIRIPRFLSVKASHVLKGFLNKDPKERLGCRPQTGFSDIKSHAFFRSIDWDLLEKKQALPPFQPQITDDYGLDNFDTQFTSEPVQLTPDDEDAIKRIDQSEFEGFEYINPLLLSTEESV

RSK3 = biological target: T8, RSK3 (Homo sapiens, UniProt Q15349); assay: as above; assay type: biochemical; settings: 1 µmol/L of BTK inhibitor
T8 construct: purchased Carna Biosciences
T8 sequence (Q15349 whole entry): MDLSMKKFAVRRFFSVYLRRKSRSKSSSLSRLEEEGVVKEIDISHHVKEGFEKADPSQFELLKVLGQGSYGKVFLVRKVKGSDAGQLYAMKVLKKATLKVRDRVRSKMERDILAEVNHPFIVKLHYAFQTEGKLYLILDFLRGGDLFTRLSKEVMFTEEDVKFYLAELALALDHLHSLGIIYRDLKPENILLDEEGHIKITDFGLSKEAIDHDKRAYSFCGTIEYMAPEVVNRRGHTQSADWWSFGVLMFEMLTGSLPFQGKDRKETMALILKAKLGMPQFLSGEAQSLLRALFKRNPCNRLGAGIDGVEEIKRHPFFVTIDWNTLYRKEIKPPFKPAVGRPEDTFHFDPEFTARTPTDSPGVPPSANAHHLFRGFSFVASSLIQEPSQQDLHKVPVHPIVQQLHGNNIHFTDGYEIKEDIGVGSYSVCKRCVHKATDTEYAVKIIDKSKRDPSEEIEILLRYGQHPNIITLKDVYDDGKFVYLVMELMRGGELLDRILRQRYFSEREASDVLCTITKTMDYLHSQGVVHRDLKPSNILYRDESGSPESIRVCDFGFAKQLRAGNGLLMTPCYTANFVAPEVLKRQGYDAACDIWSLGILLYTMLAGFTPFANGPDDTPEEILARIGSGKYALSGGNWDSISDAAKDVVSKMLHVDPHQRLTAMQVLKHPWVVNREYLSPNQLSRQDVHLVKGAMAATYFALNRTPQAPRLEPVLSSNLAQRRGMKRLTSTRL

ERK2 = ERK2 (Homo sapiens, UniProt P28482); assay: Kinase enzyme activity assay (mobility shift assay, Carna); settings: for Percentage inhibition of kinase enzyme activity: Erk2, 1 µmol/L of BTK inhibitor
Sequence of ERK2 (P28482 whole entry): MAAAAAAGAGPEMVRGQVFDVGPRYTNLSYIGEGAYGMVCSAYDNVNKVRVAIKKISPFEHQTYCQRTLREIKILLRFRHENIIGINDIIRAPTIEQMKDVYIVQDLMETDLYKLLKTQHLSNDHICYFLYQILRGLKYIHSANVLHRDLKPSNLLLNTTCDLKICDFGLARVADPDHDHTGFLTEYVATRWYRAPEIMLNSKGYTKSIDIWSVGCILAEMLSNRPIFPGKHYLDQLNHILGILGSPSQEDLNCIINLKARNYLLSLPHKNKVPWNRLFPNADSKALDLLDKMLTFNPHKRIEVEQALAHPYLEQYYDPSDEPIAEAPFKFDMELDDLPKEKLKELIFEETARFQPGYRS

## CC#CC(=O)N1CCC[C@H]1c1nc(-c2ccc(C(=O)Nc3ccccn3)cc2)c2c(N)nccn12 [acalabrutinib]
EPHB2
  Percentage inhibition of kinase enzyme activity: -0.11%
LYNa
  Percentage inhibition of kinase enzyme activity: 1.93%
TYK2
  Percentage inhibition of kinase enzyme activity: 12.80%
AKT3
  Percentage inhibition of kinase enzyme activity: -4.92%
CaMK2α
  Percentage inhibition of kinase enzyme activity: -3.43%
IRAK4
  Percentage inhibition of kinase enzyme activity: -6.55%
PKCζ
  Percentage inhibition of kinase enzyme activity: -5.44%
RSK3
  Percentage inhibition of kinase enzyme activity: 1.13%
ERK2
  Percentage inhibition of kinase enzyme activity: -2.02%

## C=CC(=O)N1CCC([C@@H]2CCNc3c(C(N)=O)c(-c4ccc(Oc5ccccc5)cc4)nn32)CC1 [zanubrutinib]
EPHB2
  Percentage inhibition of kinase enzyme activity: -1.32%

## O=C(c1ccc(Oc2ccccc2)cc1Cl)c1c[nH]c2ncnc(N[C@@H]3CC[C@@H](CO)OC3)c12 [nemtabrutinib]
EPHB2
  Percentage inhibition of kinase enzyme activity: 48.93%
LYNa
  Percentage inhibition of kinase enzyme activity: 100.76%
TYK2
  Percentage inhibition of kinase enzyme activity: 10.79%
AKT3
  Percentage inhibition of kinase enzyme activity: 9.45%
CaMK2α
  Percentage inhibition of kinase enzyme activity: 2.91%
IRAK4
  Percentage inhibition of kinase enzyme activity: 2.38%
PKCζ
  Percentage inhibition of kinase enzyme activity: -0.78%
RSK3
  Percentage inhibition of kinase enzyme activity: 19.54%
ERK2
  IC50: 0.505 µM
  Inhibition of ERK2: did not inhibit
  Percentage inhibition of kinase enzyme activity: 67.16%

## COc1ccc(F)cc1C(=O)NCc1ccc(-c2nn([C@@H](C)C(F)(F)F)c(N)c2C(N)=O)cc1 [pirtobrutinib]
EPHB2
  Percentage inhibition of kinase enzyme activity: 6.14%
LYNa
  Percentage inhibition of kinase enzyme activity: 46.22%
TYK2
  Percentage inhibition of kinase enzyme activity: -2.78%
AKT3
  Percentage inhibition of kinase enzyme activity: -2.20%
CaMK2α
  Percentage inhibition of kinase enzyme activity: -0.99%
IRAK4
  Percentage inhibition of kinase enzyme activity: -1.11%
PKCζ
  Percentage inhibition of kinase enzyme activity: -3.38%
RSK3
  Percentage inhibition of kinase enzyme activity: 1.65%
ERK2
  Percentage inhibition of kinase enzyme activity: 6.64%

## C=CC(=O)N1CCC[C@@H](n2nc(-c3ccc(Oc4ccccc4)cc3)c3c(N)ncnc32)C1 [ibrutinib]
EPHB2
  Percentage inhibition of kinase enzyme activity: 27.83%
LYNa
  Percentage inhibition of kinase enzyme activity: 98.69%
TYK2
  Percentage inhibition of kinase enzyme activity: 6.93%
AKT3
  Percentage inhibition of kinase enzyme activity: -2.25%
CaMK2α
  Percentage inhibition of kinase enzyme activity: -1.35%
IRAK4
  Percentage inhibition of kinase enzyme activity: -5.09%
PKCζ
  Percentage inhibition of kinase enzyme activity: 10.28%
RSK3
  Percentage inhibition of kinase enzyme activity: 8.80%
ERK2
  Percentage inhibition of kinase enzyme activity: -6.90%

Source: publication PMC12586182 (Frontiers in Oncology, 2025)
